Experiments:
[1] = target: T1, Adenosine receptor A1 (Homo sapiens, UniProt P30542)
T1 sequence (P30542 whole entry): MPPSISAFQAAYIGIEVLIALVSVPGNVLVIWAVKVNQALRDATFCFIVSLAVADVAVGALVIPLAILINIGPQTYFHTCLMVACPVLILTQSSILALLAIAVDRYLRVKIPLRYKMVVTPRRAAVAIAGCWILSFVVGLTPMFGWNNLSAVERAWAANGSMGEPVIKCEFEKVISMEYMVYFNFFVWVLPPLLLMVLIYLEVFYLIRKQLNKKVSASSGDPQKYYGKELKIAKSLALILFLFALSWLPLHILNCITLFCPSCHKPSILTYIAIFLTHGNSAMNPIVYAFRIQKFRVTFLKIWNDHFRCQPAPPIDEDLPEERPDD

[2] = target: T2, Alpha-2B adrenergic receptor (Homo sapiens, UniProt P18089)
T2 sequence (P18089 whole entry): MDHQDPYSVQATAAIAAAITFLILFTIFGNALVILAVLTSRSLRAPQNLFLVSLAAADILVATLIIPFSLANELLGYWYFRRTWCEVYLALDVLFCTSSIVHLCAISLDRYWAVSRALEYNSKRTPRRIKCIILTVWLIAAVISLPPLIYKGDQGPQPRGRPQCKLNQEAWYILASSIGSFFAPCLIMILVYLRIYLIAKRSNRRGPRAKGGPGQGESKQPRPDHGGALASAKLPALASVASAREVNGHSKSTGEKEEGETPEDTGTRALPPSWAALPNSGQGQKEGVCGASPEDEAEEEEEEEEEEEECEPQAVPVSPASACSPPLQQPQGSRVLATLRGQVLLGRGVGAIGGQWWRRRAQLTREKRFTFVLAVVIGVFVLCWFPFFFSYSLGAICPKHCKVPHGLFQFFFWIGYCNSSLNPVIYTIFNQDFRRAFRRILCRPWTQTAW

[3] = target: Muscarinic acetylcholine receptor M3 (Homo sapiens, UniProt P20309)
[4] = target: Neuronal acetylcholine receptor subunit alpha-4 (Homo sapiens, UniProt P43681)
[5] = target: T3, Estrogen receptor (Homo sapiens, UniProt P03372)
T3 sequence (P03372 whole entry): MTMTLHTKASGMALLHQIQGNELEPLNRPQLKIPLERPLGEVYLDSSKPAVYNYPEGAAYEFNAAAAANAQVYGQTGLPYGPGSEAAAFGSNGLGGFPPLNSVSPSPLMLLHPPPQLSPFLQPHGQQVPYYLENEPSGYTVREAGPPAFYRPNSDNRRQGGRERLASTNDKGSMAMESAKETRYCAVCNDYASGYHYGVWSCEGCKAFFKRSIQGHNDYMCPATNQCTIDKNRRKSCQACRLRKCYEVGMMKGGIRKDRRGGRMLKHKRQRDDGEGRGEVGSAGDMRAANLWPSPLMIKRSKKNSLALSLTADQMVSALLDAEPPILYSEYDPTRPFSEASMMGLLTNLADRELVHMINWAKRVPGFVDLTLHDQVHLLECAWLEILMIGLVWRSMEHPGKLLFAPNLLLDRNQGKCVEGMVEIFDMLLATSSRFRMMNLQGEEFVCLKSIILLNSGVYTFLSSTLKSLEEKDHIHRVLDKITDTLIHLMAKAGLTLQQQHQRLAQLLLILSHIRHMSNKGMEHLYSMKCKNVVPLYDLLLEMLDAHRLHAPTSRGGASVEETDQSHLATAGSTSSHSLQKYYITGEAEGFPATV

[6] = target: T4, 5-hydroxytryptamine receptor 3A (Homo sapiens, UniProt P46098); type: functional
T4 sequence (P46098 whole entry): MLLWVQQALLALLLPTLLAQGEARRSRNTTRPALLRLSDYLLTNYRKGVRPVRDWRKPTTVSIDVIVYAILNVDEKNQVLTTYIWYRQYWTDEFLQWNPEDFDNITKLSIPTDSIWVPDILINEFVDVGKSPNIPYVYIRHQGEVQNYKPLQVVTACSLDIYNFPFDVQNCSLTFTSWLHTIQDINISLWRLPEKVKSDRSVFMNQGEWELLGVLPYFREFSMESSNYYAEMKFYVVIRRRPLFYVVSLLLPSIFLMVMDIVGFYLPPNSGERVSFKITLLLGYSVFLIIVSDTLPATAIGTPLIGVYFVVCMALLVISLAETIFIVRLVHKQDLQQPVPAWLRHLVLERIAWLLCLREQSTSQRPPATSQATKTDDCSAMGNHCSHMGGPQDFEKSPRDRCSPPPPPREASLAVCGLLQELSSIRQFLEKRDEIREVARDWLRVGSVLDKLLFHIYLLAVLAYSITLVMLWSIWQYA

[7] = target: Motilin receptor (Homo sapiens, UniProt O43193)
[8] = target: Delta-type opioid receptor (Homo sapiens, UniProt P41143)
[9] = target: T5, Amine oxidase [flavin-containing] A (Homo sapiens, UniProt P21397); type: functional
T5 sequence (P21397 whole entry): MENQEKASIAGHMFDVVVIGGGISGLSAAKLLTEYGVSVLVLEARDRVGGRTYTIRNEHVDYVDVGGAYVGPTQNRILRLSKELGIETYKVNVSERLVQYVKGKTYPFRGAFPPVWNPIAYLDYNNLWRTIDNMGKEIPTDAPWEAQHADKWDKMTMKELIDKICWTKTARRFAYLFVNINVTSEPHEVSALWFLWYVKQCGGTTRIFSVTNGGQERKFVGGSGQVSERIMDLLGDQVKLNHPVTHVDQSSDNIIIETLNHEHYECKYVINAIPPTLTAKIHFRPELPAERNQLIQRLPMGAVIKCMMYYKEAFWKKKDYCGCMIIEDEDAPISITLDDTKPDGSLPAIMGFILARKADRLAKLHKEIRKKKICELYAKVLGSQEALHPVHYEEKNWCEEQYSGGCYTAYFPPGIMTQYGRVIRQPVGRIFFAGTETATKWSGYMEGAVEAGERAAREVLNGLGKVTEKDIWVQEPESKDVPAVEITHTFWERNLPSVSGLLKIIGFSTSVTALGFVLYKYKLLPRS

[10] = target: D(3) dopamine receptor (Homo sapiens, UniProt P35462)
[11] = target: Histamine H3 receptor (Homo sapiens, UniProt Q9Y5N1)
Further: assay procedure not described here.

D(3) dopamine receptor, sequence (P35462 whole entry): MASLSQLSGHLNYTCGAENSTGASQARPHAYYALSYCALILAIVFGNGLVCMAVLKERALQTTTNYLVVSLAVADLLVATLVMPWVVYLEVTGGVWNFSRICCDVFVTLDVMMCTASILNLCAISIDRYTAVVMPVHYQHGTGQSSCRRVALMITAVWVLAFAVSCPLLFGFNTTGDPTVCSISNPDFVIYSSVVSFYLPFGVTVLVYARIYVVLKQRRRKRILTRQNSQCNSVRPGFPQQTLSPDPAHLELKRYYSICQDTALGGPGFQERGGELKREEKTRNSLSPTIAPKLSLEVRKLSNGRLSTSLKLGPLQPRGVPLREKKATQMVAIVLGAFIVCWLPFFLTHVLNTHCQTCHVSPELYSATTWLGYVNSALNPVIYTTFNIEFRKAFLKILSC
Neuronal acetylcholine receptor subunit alpha-4, sequence (P43681 whole entry): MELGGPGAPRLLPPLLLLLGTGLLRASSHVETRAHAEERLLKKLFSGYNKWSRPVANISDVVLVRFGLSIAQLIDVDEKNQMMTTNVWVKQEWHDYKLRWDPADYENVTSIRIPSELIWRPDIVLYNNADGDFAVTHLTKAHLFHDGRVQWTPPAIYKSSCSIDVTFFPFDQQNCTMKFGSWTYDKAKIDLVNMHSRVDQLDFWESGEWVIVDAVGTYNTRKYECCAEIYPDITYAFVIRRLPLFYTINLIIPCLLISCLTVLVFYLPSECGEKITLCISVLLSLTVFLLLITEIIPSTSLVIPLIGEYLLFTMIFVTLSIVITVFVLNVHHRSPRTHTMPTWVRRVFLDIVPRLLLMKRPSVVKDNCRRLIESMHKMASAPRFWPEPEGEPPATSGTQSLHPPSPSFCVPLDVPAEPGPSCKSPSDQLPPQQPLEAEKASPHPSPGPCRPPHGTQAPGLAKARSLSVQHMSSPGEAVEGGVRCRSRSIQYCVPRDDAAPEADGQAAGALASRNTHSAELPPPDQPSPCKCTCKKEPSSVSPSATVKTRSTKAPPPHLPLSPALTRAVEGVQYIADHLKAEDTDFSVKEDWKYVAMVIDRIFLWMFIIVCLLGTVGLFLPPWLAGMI
Histamine H3 receptor, sequence (Q9Y5N1 whole entry): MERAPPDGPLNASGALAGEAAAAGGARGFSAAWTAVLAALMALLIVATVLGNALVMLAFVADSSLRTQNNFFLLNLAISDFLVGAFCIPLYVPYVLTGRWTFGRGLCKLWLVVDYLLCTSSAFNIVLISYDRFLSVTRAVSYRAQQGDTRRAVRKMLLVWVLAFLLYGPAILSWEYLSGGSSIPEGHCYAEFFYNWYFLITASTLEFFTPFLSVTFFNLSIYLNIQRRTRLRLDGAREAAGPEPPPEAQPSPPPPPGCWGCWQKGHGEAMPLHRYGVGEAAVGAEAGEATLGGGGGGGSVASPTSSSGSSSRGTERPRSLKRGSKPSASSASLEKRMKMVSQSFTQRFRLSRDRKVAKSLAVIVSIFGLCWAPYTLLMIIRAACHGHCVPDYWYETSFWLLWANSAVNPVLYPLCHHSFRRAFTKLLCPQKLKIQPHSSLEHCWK
Motilin receptor, sequence (O43193 whole entry): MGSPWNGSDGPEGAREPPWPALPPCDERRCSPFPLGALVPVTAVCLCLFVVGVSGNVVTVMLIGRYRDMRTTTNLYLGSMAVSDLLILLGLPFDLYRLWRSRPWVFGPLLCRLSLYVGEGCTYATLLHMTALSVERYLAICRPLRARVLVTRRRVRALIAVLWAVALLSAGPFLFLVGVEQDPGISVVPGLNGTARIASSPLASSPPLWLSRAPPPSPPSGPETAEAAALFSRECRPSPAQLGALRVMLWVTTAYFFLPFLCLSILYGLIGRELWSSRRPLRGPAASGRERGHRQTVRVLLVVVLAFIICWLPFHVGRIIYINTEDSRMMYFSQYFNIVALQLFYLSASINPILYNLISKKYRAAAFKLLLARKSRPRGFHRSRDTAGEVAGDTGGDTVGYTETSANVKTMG
Muscarinic acetylcholine receptor M3, sequence (P20309 whole entry): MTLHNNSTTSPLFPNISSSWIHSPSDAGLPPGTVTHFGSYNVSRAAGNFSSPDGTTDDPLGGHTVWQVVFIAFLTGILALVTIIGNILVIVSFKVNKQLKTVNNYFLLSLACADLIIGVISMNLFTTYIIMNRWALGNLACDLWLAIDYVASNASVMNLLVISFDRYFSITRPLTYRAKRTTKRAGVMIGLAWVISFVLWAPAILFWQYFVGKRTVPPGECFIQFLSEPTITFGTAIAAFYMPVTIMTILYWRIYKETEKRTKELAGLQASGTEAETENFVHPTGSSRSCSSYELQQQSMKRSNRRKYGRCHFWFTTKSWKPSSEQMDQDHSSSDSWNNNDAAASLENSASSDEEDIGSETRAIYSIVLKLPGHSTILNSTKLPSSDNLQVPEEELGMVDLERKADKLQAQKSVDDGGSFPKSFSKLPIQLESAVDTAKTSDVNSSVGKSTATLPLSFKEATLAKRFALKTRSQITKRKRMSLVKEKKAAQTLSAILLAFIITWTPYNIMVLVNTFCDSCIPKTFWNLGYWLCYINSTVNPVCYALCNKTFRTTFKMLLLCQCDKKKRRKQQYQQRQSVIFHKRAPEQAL
Delta-type opioid receptor, sequence (P41143 whole entry): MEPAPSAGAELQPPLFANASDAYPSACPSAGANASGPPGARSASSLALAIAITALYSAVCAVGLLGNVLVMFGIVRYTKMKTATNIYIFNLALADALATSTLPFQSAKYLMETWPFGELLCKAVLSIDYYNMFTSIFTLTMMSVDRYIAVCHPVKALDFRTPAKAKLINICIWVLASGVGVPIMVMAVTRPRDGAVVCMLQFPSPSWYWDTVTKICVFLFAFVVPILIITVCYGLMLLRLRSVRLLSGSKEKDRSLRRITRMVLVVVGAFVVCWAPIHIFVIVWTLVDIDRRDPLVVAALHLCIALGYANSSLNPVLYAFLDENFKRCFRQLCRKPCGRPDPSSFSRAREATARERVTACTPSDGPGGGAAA

Row | Compound | AC50 [1] | AC50 [2] | AC50 [3] | AC50 [4] | AC50 [5] | AC50 [6] | AC50 [7] | AC50 [8] | AC50 [9] | AC50 [10] | AC50 [11]
1 | Cc1ccc2c(-c3ccccc3)nc(=O)n(C(C)C)c2c1 [PROQUAZONE] | > 30 µM | > 30 µM | > 30 µM | > 30 µM | > 30 µM | > 30 µM | > 30 µM | 30 µM | > 30 µM | > 30 µM | > 30 µM
2 | Cc1cc2nc3c(=O)[nH]c(=O)nc-3n(C[C@H](O)[C@H](O)[C@H](O)COP(=O)(O)O)c2cc1C [RIBOFLAVIN 5'-PHOSPHATE] | > 30 µM | > 30 µM | > 30 µM | > 30 µM | 3.7 µM | > 30 µM | > 30 µM | > 30 µM | > 30 µM | > 30 µM | > 30 µM
3 | CC(NCCc1ccc(O)cc1)C(O)c1ccc(O)cc1 (configuration not stated) [RITODRINE] | > 30 µM | > 30 µM | > 30 µM | > 30 µM | > 30 µM | > 30 µM | > 30 µM | > 30 µM | > 30 µM | > 30 µM | > 30 µM
4 | CN1c2ccccc2C(NCCCCCCC(=O)O)c2ccc(Cl)cc2S1(=O)=O (configuration not stated) [TIANEPTINE] | > 30 µM | > 30 µM | > 30 µM | > 30 µM | > 30 µM | > 30 µM | > 30 µM | 28 µM | > 30 µM | 20 µM | > 30 µM
5 | COc1cc2c(Nc3ccc(Br)cc3F)ncnc2cc1OCC1CCN(C)CC1 [VANDETANIB] | > 30 µM | 0.682 µM | 24 µM | 9.6 µM | > 30 µM | > 30 µM | > 30 µM | > 30 µM | > 30 µM | 20 µM | 2.1 µM
6 | C=CC(N)CCC(=O)O (configuration not stated) [VIGABATRIN] | > 10 µM | > 10 µM | > 30 µM | > 10 µM | > 10 µM | > 30 µM | > 10 µM | > 30 µM | > 10 µM | > 30 µM | > 10 µM
7 | N#C[C@@H]1CCCN1C(=O)CNC12CC3CC(CC(O)(C3)C1)C2 [VILDAGLIPTIN] | > 30 µM | > 30 µM | > 30 µM | > 10 µM | > 30 µM | > 30 µM | > 10 µM | > 30 µM | > 30 µM | > 30 µM | > 10 µM

— ChEMBL document CHEMBL5291721, “A preclinical secondary pharmacology resource illuminates target-adverse drug reaction associations of marketed drugs” (Nat Commun, 2023)
